Assay results: US20230242540A1, “COMPOUNDS HAVING ANTICANCER ACTIVITY” (The Trustees of Princeton University, priority 2020, published 2023)

Key:
[1] = test system: isogenic CHO cell line with high RFC expression; test: Folate competition, IC50 in CHO cells with high RFC expression; type: cell-based; settings: Cricetulus griseus, folic acid free RPMI, 10 vol. % dialyzed FBS, 25 nM 5-formyl THF
Procedure: (§1) Compound 1 was tested relative to pemetrexed and methotrexate against two isogenic CHO cell lines with low and high RFC expression levels. […] Table II provides the IC50 values for Compound 1, Pemetrexed and Methotrexate.

[2] = test system: isogenic CHO cell line with low RFC expression; test: Folate competition, IC50 in CHO cells with low RFC expression; type: cell-based; settings: Cricetulus griseus, folic acid free RPMI, 10 vol. % dialyzed FBS, 25 nM 5-formyl THF
Procedure: as §1

[3] = test system: HCT116 colorectal carcinoma xenograft; test: HCT116 colorectal carcinoma xenograft; type: in vivo, female  mice; settings: 5 mg/kg intraperitoneally once daily
[4] = test system: KPC pancreatic ductal adenocarcinoma allograft; test: KPC pancreatic ductal adenocarcinoma allograft; type: in vivo, male C57BL/6 mice; settings: 5 mg/kg intraperitoneally once daily
Procedure: Tumor harvested from K-ras^LSL.G12D/+; Trp53^R172H/+; Pdx-1-Cre (KPC) mice was passaged at the flank of C57BL/6 subcutaneously. To initiate allografts, subcutaneous tumors were harvested and minced in DMEM media, mixed with equal volume of Matrigel basement membrane matrix (Corning 354234), and injected subcutaneously at the flank of male C57BL/6 mice. Tumors were measured twice per week. Once the average tumor volume reaches 100 mm^3, Compound 1 (5 mg/kg body weight, dissolved in 10% 2-hydroxypropyl-β-cyclodextrin) and vehicle (10% 2-hydroxypropyl-β-cyclodextrin, 10 mL/kg body weight) were injected intraperitoneally once daily, with continued tumor monitoring. At the end of experiment, mice were euthanized by cervical dislocation after being fasted for 6 hr. Tumors are collected into aluminum foil, clamped by a Wollenberg clamp pre-cooled in liquid N2, and kept cold in liquid N2.
To extract metabolites from tumor samples, tumors were first ground by a Cryomill (Retsch). About 10 mg of ground tissue is measured and extracted by extraction buffer (acetonitrile:methanol:H2O=2:2:1, then supplemented with 0.5 vol % formic acid) at the ratio of 370 μL buffer per 10 mg tissue. […] Metabolite levels were measured by Q Exactive Plus Hybrid Quadrupole-Orbitrap coupled with […] (HILIC) operating in the negative ionization mode.

[5] = test system: Panc1 cell line; test: Cell growth inhibition by resazurin, Panc1; type: cell-based; settings: Panc1, 4 days, with or without hypoxanthine and thymidine supplement, FIG. 1B
Procedure: (§2) Cells of (a) HCT116 and (b) Panc1 cell lines were each seeded in 96-well plates at the density of 3000/well in 80 μL of DMEM media supplemented with 10 vol % dialyzed FBS. The next day, 10 μL of media with or without hypoxanthine (1 mM) and thymidine (160 μM) was added to each well. 10 μL of Compound 1 diluted in media as 10× stock of desired concentration was also added. Relative cell number is measured by resazurin right before and 4 days after the addition of Compound 1. Namely, resazurin dissolved in phosphate-buffered saline (PBS) was added to each well to a final concentration of 10 μg/mL followed by 1-hour incubation at 37° C. Fluorescence (excitation 550 nm, emission 590 nm) is then measured by a microplate reader. […] Inhibition of growth in both cancer cell lines was achieved via disruption of purine and thymine synthesis.

[6] = test system: MC38 mouse colon adenocarcinoma allograft; test: MC38 mouse colon adenocarcinoma allograft; type: in vivo, female C57BL/6 mice; settings: 5 mg/kg intraperitoneally once daily, FIG. 5A
Procedure: To initiate allografts, 2×10^6 MC38 cells were injected subcutaneously at the flank of female C57BL/6 mice. Once the average tumor volume reaches 50 mm^3, IRS-17 (5 mg/kg body weight, dissolved in 10% 2-hydroxypropyl-β-cyclodextrin) and vehicle (10% 2-hydroxypropyl-β-cyclodextrin, 10 mL/kg body weight) are injected intraperitoneally once daily. After the final dose, mice were fasted for 12 hr. Then blood was collected by tail snip into a tube without anticoagulants. Serum was collected by taking the supernatant after centrifugation. Mice were then euthanized by cervical dislocation, and tumors are harvested and frozen in liquid N2. Tumor metabolites were extracted and measured as previously described in C. To extract serum metabolites, 2.5 μL of serum was added into 80 μL of methanol. Samples were centrifuged (16000 g for 10 min) at 4° C., and supernatant is collected.

[7] = test system: HCT116 cell line; test: Cell growth inhibition by resazurin, HCT116; type: cell-based; settings: HCT116, 4 days, with or without hypoxanthine and thymidine supplement, FIG. 1A
Procedure: as §2

Compound | IC50 [1] [nM] | IC50 [2] [nM] | change in tumor volume over time ([3]; FIG. 4A) | tumor doubling time ([3]; FIG. 4B) | change in tumor volume over time ([4]; FIG. 3A) | tumor doubling time ([4]; FIG. 3B) | cell growth [5] | tumor volume over the treatment period [6] | cell growth [7]
CN(Cc1cnc2nc(N)nc(N)c2n1)c1ccc(C(=O)N[C@@H](CCC(=O)O)C(=O)O)cc1 [Methotrexate] | 480 | 4000 |  |  |  |  |  |  | 
Nc1nc2[nH]cc(CCc3ccc(C(=O)N[C@@H](CCC(=O)O)C(=O)O)cc3)c2c(=O)[nH]1 [Pemetrexed] | 150 | 800 |  |  |  |  |  |  | 
C#Cc1ccc(Cn2ccc3c4c(N)nc(N)nc4ccc32)cc1 [Compound 1] | 0.06 | < 0.002 | substantially inhibited tumor growth | protracted tumor doubling time | substantially inhibited tumor growth | protracted tumor doubling time | inhibited cell growth | some reduction in tumor volume | inhibited cell growth
